Reference: ChEMBL document CHEMBL6153050, “Repurposing FDA-approved drugs to target G-quadruplexes in breast cancer” (Eur J Med Chem, 2025)
Calls of active or inactive are those of the source. No cut-off for these calls is given here.

Tests used:
Quadruplex DNA [1] = assay: Stabilization of G4 quadruplex DNA (unknown origin) in human MCF7 cells at IC50 concentration incubated for 6 days by flow cytometric analysis; type: cell-based; conditions: time 6.0 day
Quadruplex RNA [2] = conditions: time 10.0 min
MDA-MB-231 [3] = assay: Effect on cell cycle arrest in human MDA-MB-231 cells at IC25 concentration incubated for 6 days by PI staining based flow cytometric analysis; type: functional; conditions: time 6.0 day
MCF7 [4] = assay: Effect on cell cycle arrest in human MCF7 cells at IC25 concentration incubated for 6 days by PI staining based flow cytometric analysis; type: functional; conditions: time 6.0 day
MDA-MB-231 [5] = assay: Induction of DNA damage in human MDA-MB-231 cells assessed as increase in gamma-H2AX level at IC50 concentration incubated for 6 days by flow cytometric analysis; type: functional, cell-based; conditions: time 6.0 day
MDA-MB-231 [6] = assay: Effect on cell cycle arrest in human MDA-MB-231 cells at IC50 concentration incubated for 6 days by PI staining based flow cytometric analysis; type: functional; conditions: time 6.0 day
Quadruplex RNA [7] = conditions: time 10.0 min; remark: listed apart in the source
Quadruplex DNA [8] = conditions: time 10.0 min
MCF7 [9] = assay: Induction of DNA damage in human MCF7 cells assessed as increase in gamma-H2AX level at IC50 concentration incubated for 6 days by flow cytometric analysis; type: functional, cell-based; conditions: time 6.0 day
MDA-MB-231 [10] = assay: Cytotoxicity against human MDA-MB-231 cells assessed as reduction in cell viability at 20 uM incubated for 6 days by SRB assay; type: functional, cell-based; conditions: time 6.0 day
Quadruplex DNA [11] = assay: Stabilization of G4 quadruplex DNA (unknown origin) in human MDA-MB-231 cells assessed as increase in G4 motif at IC50 concentration incubated for 6 days by flow cytometric analysis; type: cell-based; conditions: time 6.0 day
MCF7 [12] = assay: Effect on cell cycle arrest in human MCF7 cells at IC50 concentration incubated for 6 days by PI staining based flow cytometric analysis; type: functional; conditions: time 6.0 day
MCF7 [13] = assay: Cytotoxicity against human MCF7 cells assessed as reduction in cell viability incubated for 6 days by SRB assay; type: functional, cell-based; conditions: Homo sapiens, MCF7, 144 h; for IC25: time 6 day, read-out: IC25
SK-BR-3 = assay: Cytotoxicity against human SK-BR-3 cells assessed as reduction in cell viability at 20 uM incubated for 6 days by SRB assay; type: functional, cell-based; conditions: time 6.0 day
MDA-MB-231 [14] = assay: Cytotoxicity against human MDA-MB-231 cells assessed as reduction in cell viability incubated for 6 days by SRB assay; type: functional, cell-based; conditions: Homo sapiens, MDA-MB-231, 144 h; for IC25: time 6 day, read-out: IC25
Quadruplex DNA [15] = conditions: time 10.0 min; remark: listed apart in the source
Quadruplex DNA [16] = conditions: time 10.0 min; remark: listed apart in the source
Quadruplex DNA [17] = conditions: time 10.0 min; remark: listed apart in the source
Quadruplex DNA [18] = assay: Stabilization of G4 quadruplex DNA (unknown origin) in human MDA-MB-231 cells at IC25 concentration incubated for 6 days by flow cytometric analysis; type: cell-based; conditions: time 6.0 day
Quadruplex DNA [19] = assay: Stabilization of G4 quadruplex DNA (unknown origin) in human MDA-MB-231 cells at IC50 concentration incubated for 6 days by flow cytometric analysis; type: cell-based; conditions: time 6.0 day
Quadruplex DNA [20] = assay: Stabilization of G4 quadruplex DNA (unknown origin) in human MCF7 cells at IC25 concentration incubated for 6 days by flow cytometric analysis; type: cell-based; conditions: time 6.0 day
MDA-MB-231 [21] = assay: Induction of DNA damage in human MDA-MB-231 cells assessed as increase in gamma-H2AX level at IC25 concentration incubated for 6 days by flow cytometric analysis; type: functional, cell-based; conditions: time 6.0 day
MCF7 [22] = assay: Induction of DNA damage in human MCF7 cells assessed as increase in gamma-H2AX level at IC25 concentration incubated for 6 days by flow cytometric analysis; type: functional, cell-based; conditions: time 6.0 day

| deltaTm1/2 (Quadruplex RNA [2]) [°C] | deltaTm1/2 (Quadruplex RNA [7]) [°C] | deltaTm1/2 (Quadruplex DNA [8]) [°C] | deltaTm1/2 (Quadruplex DNA [15]) [°C] | deltaTm1/2 (Quadruplex DNA [16]) [°C] | deltaTm1/2 (Quadruplex DNA [17]) [°C] | Compound | Activity (Quadruplex DNA [1]) | Activity (MDA-MB-231 [3]) | Activity (MCF7 [4]) | Activity (MDA-MB-231 [5]) | Activity (MDA-MB-231 [6]) | Activity (MCF7 [9]) | Activity (MCF7 [12]) | IC50 (MCF7 [13]) [µM] | IC25 (MCF7 [13]) [µM] | IC50 (MDA-MB-231 [14]) [µM] | IC25 (MDA-MB-231 [14]) [µM] | other results |
| --- | --- | --- | --- | --- | --- | --- | --- | --- | --- | --- | --- | --- | --- | --- | --- | --- | --- | --- |
| 2.3 | 9.6 | 5.3 | 7.7 | 17.1 | 8.1 | CN1CCCC(n2nc(Cc3ccc(Cl)cc3)c3ccccc3c2=O)CC1 (configuration not stated) [AZELASTINE] | Active | inactive | inactive | inactive | inactive | Active | inactive | 10.3 | 5.8 | 8.2 | 5.2 | Activity (MDA-MB-231 [10]): Active; Activity (Quadruplex DNA [11]): Active; Activity (SK-BR-3): Active |
| 1.6 | 6.3 | 3.2 | 4 | 11 | 7.8 | O=C(c1ccc(OCCN2CCCCC2)cc1)c1c(-c2ccc(O)cc2)sc2cc(O)ccc12 [RALOXIFENE] | inactive | inactive | inactive | inactive | inactive | inactive | inactive | 2.7 | 0.63 | 10.3 | 8.2 | Activity (Quadruplex DNA [18]): inactive; Activity (Quadruplex DNA [19]): inactive; Activity (Quadruplex DNA [20]): inactive; Activity (MDA-MB-231 [21]): inactive; Activity (MCF7 [22]): inactive |
